Values joined by “and” are separate entries in the source; they are usually repeats but may differ in a detail not shown here. Identical values can stand only once.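 Five concentrations, 48 hours, 96-well plates. Abbreviation: GI50, concentration required for 50% inhibition of growth. At the TGI there is no net growth.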
These compounds were tested on MDA-MB-468 breast (assay: NCI anticancer screen, dose series, 48 h).
`COc1cc(C2c3cc4c(cc3OC(N3CCOCC3)C2C)OCO4)cc(OC)c1OC` (stereo unspecified) was tested, and the GI50 was 4.15 µM and the TGI was > 100 µM.
`CC(=O)O[C@@H]1C(=O)N(c2cnccn2)[C@H]1c1ccccc1[N+](=O)[O-]` showed a GI50 of 0.376 µM and a TGI of 4.05 µM.
Compound `CCOC(=O)c1cn2ncnc(Oc3ccc(NC(=O)NCCN(CC)CC)c(Cl)c3)c2c1C` has a GI50 of 9.57 µM and a TGI of 29 µM.
With `COc1cc2c(cc1-c1c(C)noc1C)ncc1[nH]c(=O)n([C@H](C)c3ccccn3)c12` the GI50 was 0.445 µM and the TGI was > 36.8 µM.
In the case of `c1cc(-c2cnn3nc(N4CCOCC4)ccc23)nc(NC2CC2)n1`, the GI50 was 6.8 µM and the TGI was 21 µM.
Compound `O=C(Nc1ccc([N+](=O)[O-])cc1)c1cc2ccccc2cc1O` has a GI50 of 0.898 µM and a TGI of 4.74 µM.
`C=C1C(=O)O[C@H]2[C@H]1CC/C(COC(=O)NCc1cccc(OC)c1)=C\CC[C@@]1(C)O[C@@H]21` was tested, and the GI50 was 1.29 µM and the TGI was 3.84 µM.
Compound `O=C1C(Cl)=C(Nc2ccc3c(c2NC2=C(Cl)C(=O)c4ccccc4C2=O)C(=O)c2ccccc2C3=O)C(=O)c2ccccc21` has a GI50 of 1.35 µM and a TGI of 3.85 µM.
In the case of `Cc1ccc(C(=O)Nc2ccccc2C(=O)N/N=C(\c2ccccc2)c2ccccn2)cc1`, the GI50 was 0.266 µM and the TGI was 2.94 µM.
With `CCN1CCN(c2nc(C)cc(N(CCCNc3ccnc4cc(Cl)ccc34)Cc3ccco3)n2)CC1` the GI50 was 2.2 µM and the TGI was 5.28 µM.
In the case of `COc1ccc(-c2cc3nccn3c(Nc3ncccc3C(N)=O)n2)cc1OC`, the GI50 was > 100 µM and the TGI was > 100 µM.
With `O=C1/C(=C/c2ccc(C(F)(F)F)cc2)COc2ccc(O)cc21` the GI50 was 1.53 µM and the TGI was 3.04 µM.
For `Cc1[nH]ccc2cc3nc4ccccc4c3cc12`, the GI50 was 1.91 µM and the TGI was 9.09 µM.
Work on `ClC1=C(Cl)C(Cl)=C(Cl)C1=Cc1ccc(Cl)cc1Cl` yielded a GI50 of 0.257 µM and a TGI of 0.728 µM.
`CN1CCN(c2ccc([N+](=O)[O-])c3no[n+]([O-])c23)CC1` gave a GI50 of 0.203 µM and a TGI of 0.821 µM.
For `Cc1sc2c(c1C)C(c1ccc(Cl)cc1)=N[C@@H](CC(=O)Nc1ccc(O)cc1)c1nnc(C)n1-2`, the GI50 was 0.212 µM and the TGI was 17.8 µM.
`O=C(Nc1cccc(Cl)c1)Nc1nc2ccc([N+](=O)[O-])cc2o1` gave a GI50 of 2.26 µM and a TGI of 5.73 µM.
In the case of `CC(C)(C)n1cc(-c2ccnc(NCCCNS(=O)(=O)c3ccc(Cl)cc3)c2)c(-c2cccc(O)c2)n1`, the GI50 was 1.8 µM and the TGI was 4.16 µM.
`O=C(NNc1nc2cc(F)cc(F)c2n2cccc12)c1cccnn1` was tested, and the GI50 was 0.638 µM and 0.219 µM and the TGI was 2.43 µM and 1.47 µM.
For `C[C@@H]1CCC2[C@@H](C)[C@H](OC(=O)CCC(=O)NCCNC(=O)Cc3cc(=O)oc4cc(N(C)C)ccc34)O[C@@H]3O[C@]4(C)CC[C@@H]1C23OO4` (stereo partly specified), the GI50 was 13.4 µM and the TGI was 59.4 µM.
With `COc1cccc2cc(N(C)c3nc(C)nc4ccsc34)ccc12` the GI50 was < 0.01 µM.
`Clc1ccc2c(NCCN3CCN(c4ccnc(N5CCCC5)n4)CC3)ccnc2c1` gave a GI50 of 2.05 µM and a TGI of 5.09 µM.
Compound `Cc1cc(Cl)ccc1Nc1nc(C(F)(F)F)ccc1C(=O)N/N=C/c1ccc(N(C)C)cc1` has a GI50 of 0.442 µM and a TGI of 4.67 µM.
`CCCCCCCCCCC(CN(CC)CC)C(O)c1ccccc1` (stereo unspecified) showed a GI50 of 1.52 µM and a TGI of 3.21 µM.
In the case of `CCCCc1oc2ccccc2c1C(=O)c1cc(I)c(OCCN(CC)CC)c(I)c1`, the GI50 was 1.49 µM and the TGI was 3.12 µM.
In the case of `C#CCOc1cccc(Nc2ncnc3c2ncn3C2CCN(C(=O)CCl)C2)c1` (stereo unspecified), the GI50 was 19.8 µM and the TGI was 41 µM.
Work on `Cc1ccc2oc(=O)cc(C3c4ccc([nH]4)C(c4cc(=O)oc5ccc(C)cc45)c4ccc([nH]4)C(c4cc(=O)oc5ccc(C)cc45)c4ccc([nH]4)C(c4cc(=O)oc5ccc(C)cc45)c4ccc3[nH]4)c2c1` (stereo unspecified) yielded a GI50 of 0.0344 µM and a TGI of 1.86 µM.
In the case of `O=C(Nn1c2c(sc1=NC1CC1)C(=O)c1ccccc1C2=O)c1cc2ccc1CCc1ccc(cc1)CC2`, the GI50 was 2.55 µM and the TGI was 7.32 µM.
`CO[C@H]1/C=C/C[C@H](C)[C@@H](C)S(=O)(=O)NC(=O)c2ccc3c(c2)N(C[C@@H]2CC[C@H]21)C[C@@]1(CCCc2cc(Cl)ccc21)CO3` showed a GI50 of 0.166 µM and a TGI of 0.55 µM.
In the case of `c1ccc([P+](CCC[P+](c2ccccc2)(c2ccccc2)c2ccccc2)(c2ccccc2)c2ccccc2)cc1`, the GI50 was 1.72 µM and the TGI was 26.3 µM.
With `O=c1[nH]cc(F)c(=O)[nH]1` the TGI was > 100 µM and 1560 µM.
Work on `COc1ccc(Cn2cc3c(c2-c2ccccc2)CCc2cncnc2-3)cc1` yielded a GI50 of 3.25 µM and a TGI of 11 µM.
`CN(C)CCN1C(=O)c2cccc3c(-c4ccc5ncn(C6CCCCC6)c5c4)ccc(c23)C1=O` gave a GI50 of 1.74 µM and a TGI of 4.33 µM.
In the case of `COc1cc(/C=N/O)nc(-c2ccccn2)c1`, the GI50 was 0.307 µM and the TGI was 1.7 µM.
With `CC1(C)CC(O)CCCCCCOc2c(CN)cccc2NC(=O)c2nc(cnc2N)-c2ccc(cc2)S1(=O)=O` (stereo unspecified) the GI50 was 0.49 µM and the TGI was 2.45 µM.
`CN(C)S(=O)(=O)c1cccc(-c2nc3sc4c(c3c(=O)[nH]2)CCCC4)c1` was tested, and the GI50 was 8.92 µM and the TGI was > 100 µM.
For `C=C(C=O)[C@@H]1CC[C@]2(C(=O)O)CC[C@]3(C)C(CC[C@@H]4[C@@](C)(CCC#N)[C@H](C(=C)C=O)CC[C@]43C)[C@@H]12` (stereo partly specified), the GI50 was 2.31 µM and the TGI was 5.69 µM.
Compound `COc1cc(C(=O)/C=C/c2c(-c3cccs3)nc3ccccn23)cc(OC)c1OC` has a GI50 of 1.72 µM and a TGI of 3.4 µM.
`CO[C@@]12[C@H](COC(N)=O)C3=C(C(=O)C(C)=C(N)C3=O)N1C[C@@H]1N[C@@H]12` was tested, and the GI50 was 0.241 µM and 1.01 µM and the TGI was 1.3 µM and 4.9 µM.
